Assay results taken from the supplement of paper PMC10307832.

Key:
Test in all cases: relative viability (nuclei count vs DMSO), 5 days (fraction); higher = more cells survive
XMD14-99 = compound: CN1CCN(CC1)C2=CC(=C(C=C2)NC3=NC(=C(S3)C(=O)C4=C(C=CC=C4Cl)Cl)N)OC [XMD14-99]
Outline: (§1)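 Lung cancer cell lines were seeded into 1536-well plates, kept overnight at 37 °C and pinned with five library-drug doses (not always all listed) spaced by √10. After 5 days, nuclei were Hoechst-stained, imaged at 4× and counted with MetaXpress. Viability is treated-well nuclei over vehicle-well nuclei, taken as a median across plates. Plates needed control CV below 25% and at least one doubling.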

AZD1208 = compound: N[C@@H]1CCCN(c2c(/C=C3\SC(=O)NC3=O)cccc2-c2ccccc2)C1 [AZD1208]
Outline: as §1

AZD1208 + Pemetrexed = compound: N[C@@H]1CCCN(c2c(/C=C3\SC(=O)NC3=O)cccc2-c2ccccc2)C1 [AZD1208] + Nc1nc2[nH]cc(CCc3ccc(C(=O)N[C@@H](CCC(=O)O)C(=O)O)cc3)c2c(=O)[nH]1 [Pemetrexed] (partner 0.2 µM)
Outline: (§2)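 Medians of duplicate plates are given as relative viability. That measure is the nuclei count in treated wells divided by the count in vehicle wells. Counts were taken on 4× images of lung cancer cell lines in 1536-well plates, 5 days after pin-tool dosing the day after seeding with one drug alone or a fixed anchor-drug dose plus five library-drug doses (not always all listed) in √10 steps.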

XMD14-99 + Alpelisib = compound: CN1CCN(CC1)C2=CC(=C(C=C2)NC3=NC(=C(S3)C(=O)C4=C(C=CC=C4Cl)Cl)N)OC [XMD14-99] + Cc1nc(NC(=O)N2CCC[C@H]2C(N)=O)sc1-c1ccnc(C(C)(C)C(F)(F)F)c1 [Alpelisib] (partner 2 µM)
Outline: as §2

Row | Cell Line | relative viability (XMD14-99; 0.08 µM) | relative viability (XMD14-99; 0.8 µM) | relative viability (XMD14-99; 2.53 µM) | relative viability (XMD14-99; 8 µM) | relative viability (AZD1208; 0.08 µM) | relative viability (AZD1208; 0.253 µM) | relative viability (AZD1208; 0.8 µM) | relative viability (AZD1208; 2.53 µM) | relative viability (AZD1208; 8 µM) | relative viability (AZD1208 + Pemetrexed; first compound 0.08 µM) | relative viability (AZD1208 + Pemetrexed; first compound 0.253 µM) | relative viability (AZD1208 + Pemetrexed; first compound 2.53 µM) | relative viability (AZD1208 + Pemetrexed; first compound 8 µM) | relative viability (XMD14-99 + Alpelisib; first compound 0.08 µM) | relative viability (XMD14-99 + Alpelisib; first compound 0.8 µM) | relative viability (XMD14-99 + Alpelisib; first compound 2.53 µM) | relative viability (XMD14-99 + Alpelisib; first compound 8 µM) | relative viability (AZD1208 + Pemetrexed; first compound 0.8 µM)
1 | NCI-H1651 | 0.972 | 0.984 | 0.964 | 0.845 | 0.954 | 1.07 | 0.83 | 0.928 | 0.856 | 0.626 | 0.57 | 0.569 | 0.555 | 0.841 | 0.836 | 1.09 | 0.917 | 
2 | NCI-H1666 | 1 | 0.922 | 0.999 | 0.877 | 0.992 | 1.06 | 0.881 | 0.942 | 0.959 | 0.826 | 0.874 | 0.823 | 0.896 | 0.866 | 0.94 | 0.805 | 0.699 | 0.792
3 | NCI-H1734 | 0.969 | 0.969 | 0.922 | 0.754 | 0.887 | 0.989 | 0.874 | 0.841 | 0.647 | 0.404 | 0.409 | 0.427 | 0.435 | 0.659 | 0.704 | 0.738 | 0.584 | 0.442
4 | NCI-H1755 | 0.996 | 0.974 | 1.01 | 0.784 | 0.988 | 1.07 | 0.952 | 0.983 | 0.792 | 0.451 | 0.457 | 0.426 | 0.413 | 0.945 | 0.908 | 0.886 | 0.648 | 0.532
5 | NCI-H1792 | 1.02 | 0.879 | 0.818 | 0.471 | 1.08 | 1.05 | 0.646 | 0.954 | 0.664 | 0.912 | 1.11 | 0.698 | 0.556 | 0.688 | 0.734 | 0.627 | 0.474 | 
6 | NCI-H1793 | 0.881 | 0.892 | 0.839 | 0.688 | 1.02 | 1.2 | 0.794 | 1.01 | 0.673 | 0.828 | 0.954 | 0.935 | 0.718 | 0.77 | 0.641 | 0.666 | 0.476 | 0.716
7 | NCI-H1915 | 0.991 | 0.958 | 0.91 | 0.796 | 0.995 | 1.06 | 0.967 | 0.875 | 0.979 | 0.452 | 0.483 | 0.462 | 0.443 | 1.09 | 0.984 | 0.955 | 0.925 | 0.528
8 | NCI-H1944 | 0.906 | 0.917 | 0.817 | 0.809 | 0.963 | 0.898 | 0.861 | 0.822 | 0.639 | 0.593 | 0.652 | 0.579 | 0.535 | 0.902 | 0.867 | 0.805 | 0.755 | 0.591
9 | NCI-H1975 | 0.992 | 0.994 | 0.917 | 0.788 | 1.06 | 1.08 | 0.909 | 1.04 | 0.878 | 0.288 | 0.295 | 0.286 | 0.327 | 0.715 | 0.605 | 0.553 | 0.378 | 0.282
10 | NCI-H1993 | 0.89 | 0.987 | 0.872 | 0.806 | 0.931 | 0.779 | 0.808 | 0.818 | 0.733 | 0.481 | 0.527 | 0.568 | 0.413 | 0.63 | 0.731 | 0.601 | 0.59 | 0.526
11 | NCI-H2009 | 0.987 | 1.03 | 0.887 | 0.804 | 1.03 | 1.07 | 1.01 | 0.975 | 1 | 1.01 | 1.03 | 1.11 | 1.06 | 1.14 | 1.13 | 1.13 | 0.968 | 0.917
12 | NCI-H2023 | 0.961 | 0.875 | 0.953 | 0.71 | 0.863 | 1.01 | 0.86 | 0.867 | 0.769 | 0.263 | 0.207 | 0.243 | 0.229 | 0.614 | 0.527 | 0.646 | 0.534 | 0.241
13 | NCI-H2085 | 1 | 0.978 | 0.961 | 0.837 | 0.974 | 1.09 | 0.994 | 1.01 | 1.05 | 0.912 | 0.971 | 0.817 | 0.893 | 0.92 | 0.866 | 0.889 | 0.728 | 0.936
14 | NCI-H2087 | 0.957 | 0.968 | 0.818 | 0.483 | 0.956 | 1.18 | 0.821 | 1.01 | 1.01 | 0.664 | 0.713 | 0.649 | 0.627 | 1.03 | 0.801 | 0.827 | 0.549 | 0.475
15 | NCI-H2126 | 0.993 | 0.991 | 0.977 | 0.897 | 0.998 | 0.965 | 0.942 | 0.866 | 0.79 | 0.649 | 0.734 | 0.634 | 0.614 | 0.745 | 0.75 | 0.723 | 0.647 | 0.652
16 | NCI-H2170 | 0.97 | 1.01 | 0.995 | 0.925 | 0.99 | 0.994 | 0.945 | 0.964 | 0.64 | 0.244 | 0.289 | 0.275 | 0.268 | 0.771 | 0.762 | 0.854 | 0.734 | 0.688
17 | NCI-H2228 | 1.12 | 0.961 | 0.891 | 0.398 | 0.954 | 1.19 | 0.953 | 0.788 | 0.84 | 0.328 | 0.368 | 0.371 | 0.344 | 0.927 | 0.528 | 0.492 | 0.188 | 0.357
18 | NCI-H2347 | 1.04 | 1 | 0.966 | 0.637 | 1.02 | 1.09 | 1 | 0.951 | 1.08 | 0.447 | 0.423 | 0.439 | 0.444 | 0.995 | 0.984 | 0.958 | 0.572 | 0.468
